# Laboratory results published in US8158633B2, “Phenyl-substituted pyrazolopyrimidines” (Boehringer Ingelheim International GmbH, priority 2002, dated 2012).
# Experiments:
# PDE9A [1] = biological target: T1, PDE9A (Homo sapiens, UniProt O76083); conditions: isolated enzyme, concentrations of up to 100 μM; cited from earlier work
# Murine PDE9A = biological target: T2, Murine PDE9A (Mus musculus, UniProt O70628); conditions: concentrations below 200 μM; cited from earlier work
# T2 sequence (O70628 1-534): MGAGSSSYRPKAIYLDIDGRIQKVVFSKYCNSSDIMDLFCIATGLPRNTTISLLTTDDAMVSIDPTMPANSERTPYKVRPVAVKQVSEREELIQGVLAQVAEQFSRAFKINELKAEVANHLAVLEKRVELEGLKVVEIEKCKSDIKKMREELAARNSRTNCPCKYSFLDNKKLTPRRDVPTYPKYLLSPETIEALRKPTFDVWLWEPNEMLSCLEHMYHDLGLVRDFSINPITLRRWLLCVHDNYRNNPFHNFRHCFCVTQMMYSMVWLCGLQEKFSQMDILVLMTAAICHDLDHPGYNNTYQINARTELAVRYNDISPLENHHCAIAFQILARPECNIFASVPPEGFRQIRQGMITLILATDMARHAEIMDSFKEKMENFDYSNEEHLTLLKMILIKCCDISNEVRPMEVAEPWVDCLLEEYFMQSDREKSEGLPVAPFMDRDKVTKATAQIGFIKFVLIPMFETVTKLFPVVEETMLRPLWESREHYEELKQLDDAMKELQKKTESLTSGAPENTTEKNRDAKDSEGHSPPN
# PDE9A [2] = biological target: T1, PDE9A; assay: PDE inhibition: recombinant PDE9A, [3H]cGMP scintillation proximity assay; type: biochemical; parameters: made in house; host or cells: Sf9 cells, pFASTBAC baculovirus expression system; conditions: recombinant PDE9A expressed in Sf9 cells; read-out: IC50 (PDE9A-inhibiting effect)
# Source text: Recombinant PDE1C (GenBank/EMBL Accession Number: NM_005020, Loughney et al. J. Biol. Chem. 1996 271, 796-806), PDE2A (GenBank/EMBL Accession Number: NM_002599, Rosman et al. Gene 1997 191, 89-95), PDE3B (GenBank/EMBL Accession Number: NM_000922, Miki et al. Genomics 1996, 36, 476-485), PDE4B (GenBank/EMBL Accession Number: NM_002600, Obernolte et al. Gene. 1993, 129, 239-247), PDE5A (GenBank/EMBL Accession Number: NM_001083, Loughney et al. Gene 1998, 216, 139-147), PDE7B (GenBank/EMBL Accession Number: NM_018945, Hetman et al. Proc. Natl. Acad. Sci. U.S.A. 2000, 97, 472-476), PDE8A (GenBank/EMBL Accession Number: AF—056490, Fisher et al. Biochem. Biophys. Res. Commun. 1998 246, 570-577), PDE9A (Fisher et al., J. Biol. Chem, 1998, 273 (25): 15559-15564), PDE10A (GenBank/EMBL Accession Number: NM_06661, Fujishige et al. J Biol Chem. 1999, 274, 18438-45), PDE11A (GenBank/EMBL Accession Number: NM_016953, Fawcett et al. Proc. Natl. Acad. Sci. 2000, 97, 3702-3707) were expressed in Sf9 cells with the aid of the pFASTBAC baculovirus expression system (GibcoBRL).
# The test substances are dissolved in 100% DMSO and serially diluted to determine their in vitro effect on PDE 9A. Typically, serial dilutions from 200 μM to 1.6 μM are prepared (resulting final concentrations in the assay: 4 μM to 0.032 μM). 2 μL portions of the diluted substance solutions are introduced into the wells of microtiter plates (Isoplate; Wallac Inc., Atlanta, Ga.). Then 50 μL of a dilution of the PDE9A preparation described above are added. The dilution of the PDE9A preparation is chosen so that less than 70% of the substrate is converted during the subsequent incubation (typical dilution: 1:10000; dilution buffer: 50 mM Tris/HCl pH 7.5, 8.3 mM MgCl2, 1.7 mM EDTA, 0.2% BSA). The substrate, [8-^3H] guanosine 3′,5′-cyclic phosphate (1 μCi/μL; Amersham Pharmacia Biotech., Piscataway, N.J.) is diluted 1:2000 with assay buffer (50 mM Tris/HCl pH 7.5, 8.3 mM MgCl2, 1.7 mM EDTA) to a concentration of 0.0005 μCi/μL. The enzyme reaction is finally started by adding 50 μL (0.025 μCi) of the diluted substrate. The assay mixtures are incubated at room temperature for 60 min and the reaction is stopped by adding 25 μl of a PDE9A inhibitor (e.g. the inhibitor from preparation example 1, final concentration 10 μM) dissolved in assay buffer. Immediately thereafter, 25 μL of a suspension containing 18 mg/mL Yttrium Scintillation Proximity Beads (Amersham Pharmacia Biotech., Piscataway, N.J.) are added. The microtiter plates are sealed with a film and left to stand at room temperature for 60 min. The plates are then measured for 30 s per well in a Microbeta scintillation counter (Wallac Inc., Atlanta, Ga.). IC50 values are determined from the graphical plot of the substance concentration versus the percentage inhibition.
# T1 sequence (O76083 whole entry): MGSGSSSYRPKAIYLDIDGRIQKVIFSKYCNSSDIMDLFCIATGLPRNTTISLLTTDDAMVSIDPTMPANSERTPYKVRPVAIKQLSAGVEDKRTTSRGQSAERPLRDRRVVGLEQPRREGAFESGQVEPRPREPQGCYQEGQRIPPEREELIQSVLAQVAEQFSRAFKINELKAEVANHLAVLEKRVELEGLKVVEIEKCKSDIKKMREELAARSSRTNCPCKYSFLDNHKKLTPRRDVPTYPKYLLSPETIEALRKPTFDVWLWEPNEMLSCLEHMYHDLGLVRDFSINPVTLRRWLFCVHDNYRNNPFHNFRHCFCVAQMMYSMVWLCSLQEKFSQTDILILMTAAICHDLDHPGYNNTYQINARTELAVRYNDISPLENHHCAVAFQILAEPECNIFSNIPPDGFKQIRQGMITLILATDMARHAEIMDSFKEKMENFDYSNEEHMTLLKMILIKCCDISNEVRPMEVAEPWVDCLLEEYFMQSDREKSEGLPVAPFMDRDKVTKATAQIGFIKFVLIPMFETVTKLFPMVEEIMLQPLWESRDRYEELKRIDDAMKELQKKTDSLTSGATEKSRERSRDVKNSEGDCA
melting point,SMILES,other results
198 °C,"O=c1[nH]c(Cc2ccc(Cl)c(Cl)c2)nc2c1cnn2C1CCCC1 [Example 4, 6-(3,4-Dichlorobenzyl)-1-cyclopentyl-1,5-dihydro-4H-pyrazolo[3,4-d]pyrimidin-4-one]",IC50 (PDE9A [2]): 30 nM
180 °C,"O=c1[nH]c(Cc2ccccc2F)nc2c1cnn2C1CCCC1 [Example 2, 6-(2-Fluorobenzyl)-1-cyclopentyl-1,5-dihydro-4H-pyrazolo[3,4-d]pyrimidin-4-one]",IC50 (PDE9A [2]): 30 nM
152 °C,"Cc1cccc(Cc2nc3c(cnn3C3CCCC3)c(=O)[nH]2)c1 [Example 8, 6-(3-Methylbenzyl)-1-cyclopentyl-1,5-dihydro-4H-pyrazolo[3,4-d]pyrimidin-4-one]",
159 °C,"O=c1[nH]c(Cc2cccc(Br)c2)nc2c1cnn2C1CCCC1 [Example 3, 6-(3-Bromobenzyl)-1-cyclopentyl-1,5-dihydro-4H-pyrazolo[3,4-d]pyrimidin-4-one]",
154 °C,"S=c1[nH]c(Cc2cccc(Cl)c2)nc2c1cnn2C1CCCC1 [Example 13, 6-(3-Chlorobenzyl)-1-cyclopentyl-1,5-dihydro-4H-pyrazolo[3,4-d]pyrimidine-4-thione]",IC50 (PDE9A [2]): 30 nM
159 °C,"O=c1[nH]c(Cc2cccc(Cl)c2)nc2c1cnn2C1CCCC1 [Example 1, 6-(3-Chlorobenzyl)-1-cyclopentyl-1,5-dihydro-4H-pyrazolo[3,4-d]pyrimidin-4-one]",IC50 (PDE9A [2]): 20 nM

# More lines, now with the values behind:
SMILES,melting point,other results
CC(C)Cn1c(=O)n(C)c(=O)c2[nH]cnc21 [IBMX],,inhibition of human PDE9A (PDE9A [1]): no inhibition; inhibition of murine PDE9A (Murine PDE9A): not inhibited
"O=c1[nH]c(Cc2ccccc2OC(F)(F)F)nc2c1cnn2C1CCCC1 [Example 14, 1-Cyclopentyl-6-[2-(trifluoromethoxy)benzyl]-1,5-dihydro-4H-pyrazolo[3,4-d]-pyrimidin-4-one]",161 °C,
"CCC(CC)n1ncc2c(=O)[nH]c(Cc3cccc(C)c3)nc21 [Example 10, 6-(3-Methylbenzyl)-1-(1-ethylpropyl)-1,5-dihydro-4H-pyrazolo[3,4-d]pyrimidin-4-one]",128 °C,IC50 (PDE9A [2]): 64 nM
"CCC(CC)n1ncc2c(=O)[nH]c(Cc3cccc(Cl)c3)nc21 [Example 7, 6-(3-Chlorobenzyl)-1-(1-ethylpropyl)-1,5-dihydro-4H-pyrazolo[3,4-d]pyrimidin-4-one]",138 °C,
CCOC(=O)C1=C[C@]2(CC)CCCN3CCc4c(n1c1ccccc41)[C@@H]32 [vinpocetine],,inhibition of human PDE9A (PDE9A [1]): no inhibition
"O=c1[nH]c(Cc2cccc(Cl)c2Cl)nc2c1cnn2C1CCCC1 [Example 6, 6-(2,3-Dichlorobenzyl)-1-cyclopentyl-1,5-dihydro-4H-pyrazolo[3,4-d]pyrimidin-4-one]",181 °C,
COc1ccc(C2CNC(=O)C2)cc1OC1CCCC1 (stereo not drawn) [rolipram],,inhibition of human PDE9A (PDE9A [1]): no inhibition
"CCC(CC)n1ncc2c(=O)[nH]c(Cc3cc(Cl)ccc3Cl)nc21 [Example 9, 6-(2,5-Dichlorobenzyl)-1-(1-ethylpropyl)-1,5-dihydro-4H-pyrazolo[3,4-d]pyrimidin-4-one]",134 °C,
"O=c1[nH]c(Cc2cc(Cl)cc(Cl)c2)nc2c1cnn2C1CCCC1 [Example 5, 6-(3,5-Dichlorobenzyl)-1-cyclopentyl-1,5-dihydro-4H-pyrazolo[3,4-d]pyrimidin-4-one]",177 °C,
CC(=O)Nc1ccc(-c2c[nH]c(=O)cn2)cc1 [SKF94120],,inhibition of human PDE9A (PDE9A [1]): no inhibition
"CCC(CC)n1ncc2c(=O)[nH]c(Cc3cccc(C(F)(F)F)c3)nc21 [Example 11, 1-(1-Ethylpropyl)-6-[3-(trifluoromethyl)benzyl]-1,5-dihydro-4H-pyrazolo[3,4-d]-pyrimidin-4-one]",120 °C,
OCCN(CCO)c1nc(N2CCCCC2)c2nc(N(CCO)CCO)nc(N3CCCCC3)c2n1 [dipyridamole],,inhibition of human PDE9A (PDE9A [1]): no inhibition
